Measured values published in patent US7459444B2, “Inhibitors of chymase” (Janssen Pharmaceutica N.V., priority 2004, dated 2008).

Columns and labels:
[1] = system: Ascaris suum antigen-induced asthmatic response in conscious sheep; test: Ascaris suum antigen-induced asthmatic response in conscious sheep; format: in vivo; conditions: for early airway response (0-2 h after antigen challenge) / late airway response (6-8 h after antigen challenge): n=2 sheep/group
Method: The efficacy of Compound 17 for the treatment of asthma was evaluated in a validated model of Ascaris suum antigen-induced asthmatic response in conscious sheep (Abraham, W. M., Pharmacology of allergen-induced early and late airway responses and antigen-induced airway hyperresponsiveness in allergic sheep, Pulmonary Pharmacology, 1989, 2, 33-40).
Baseline (BSL) dose response curves to aerosol carbachol were obtained from historical control responses prior to antigen challenge. Baseline values of specific lung resistance (SRL) were obtained and the sheep were then given a specified amount (mg) of the test compound as an inhaled aerosol or as a oral dose at a specified time before antigen challenge. Post-drug measurements of SRL were obtained and the sheep were then challenged with Ascaris suum antigen. Measurements of SRL were obtained immediately after challenge, hourly from 1-6 h after challenge and on the half-hour from 6½-8 h after challenge. Measurements of SRL were obtained 24 h after challenge followed by a 24 h post-challenge with carbachol to measure airway hyperreactivity.
Compound 17 was administered as an aerosol at 4.5 mg/dose (ca. 0.1 mg/Kg/dose, based on a 45 Kg sheep), twice-a-day (BID) for three consecutive days, followed by a dose on day 4, 0.5 h prior to antigen challenge. Ascaris suum antigen challenge was given at the zero time point.
Compound 17 was administered as an oral solution at 15 mg/Kg/dose, twice-a-day (BID) for three consecutive days, followed by a dose on day 4, 2 h prior to antigen challenge. Ascaris suum antigen challenge was given at the zero time point.

human skin chymase = biological target: T1, human skin chymase (Homo sapiens, UniProt P23946); test: Enzyme-catalyzed hydrolysis assay (chymase inhibition); format: biochemical; conditions: 10 nM enzyme, 0.7 mM Suc-Ala-Ala-Pro-Phe-pNa, pH 8.0, 37° C., 30 minutes
T1 construct: using human skin chymase (Cortex Biochem); purchased Cortex Biochem
T1 sequence (P23946 22-247): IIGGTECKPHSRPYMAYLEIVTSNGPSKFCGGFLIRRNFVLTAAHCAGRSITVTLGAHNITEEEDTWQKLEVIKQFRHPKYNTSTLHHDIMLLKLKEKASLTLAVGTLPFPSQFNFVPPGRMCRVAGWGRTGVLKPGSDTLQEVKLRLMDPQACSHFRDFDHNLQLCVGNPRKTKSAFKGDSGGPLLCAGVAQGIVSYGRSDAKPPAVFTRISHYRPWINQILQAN
Method: Enzyme-catalyzed hydrolysis rates were measured spectro-photometrically using human skin chymase (Cortex Biochem), a chromogenic substrate (Suc-Ala-Ala-Pro-Phe-pNa) (Bachem) in aqueous buffer (450 mM Tris, 1800 mM NaCl, pH 8.0), and a microplate reader (Molecular Devices). […] Percent inhibition was calculated by comparing the initial reaction slopes of the samples without inhibitor to those with inhibitor. IC50 values were determined using a four parameter fit logistics model. The term “NT” indicates a compound that was not tested.

[2] = Pharmacokinetic assay for evaluation of oral absorption potential; format: in vivo; conditions: male Sprague Dawley rats, oral gavage 15 mg/kg in 20% hydroxy-beta-cyclo dextran, plasma, N = 2; for Cmax at 2 h: rat
Method: Male Sprague Dawley rats, weighing 250-300 g, were fasted overnight then dosed by oral gavage at a level of 15 mg/kg with a compound. Compounds were formulated in 20% hydroxy-beta-cyclo dextran.
Blood samples (0.5 mL) were collected into lithium heparinized tubes at 0.5, 1.0 and 2.0 h post dose via orbital sinus puncture. Blood samples were centrifuged at 2000 rpm for ˜3 min for cell removal, approximately 200 μL of plasma supernatant was then transferred to a clean vial, frozen then placed on dry ice and delivered to SFBC Analytical Labs, Inc. for analysis.
Plasma samples were prepared as follows. Two hundred microliters of acetonitrile containing 1 μM internal standard was added to 100 μL of plasma to precipitate proteins. Samples were centrifuged at 5000 g for 5 min and supernatant removed for analysis by LC-MS. Two hundred microliters of water was added to adjust sample solvent strength and prevent peak splitting. Calibration standards were prepared by adding appropriate volumes of stock solution directly into plasma and treated identically to collected plasma samples. Calibration standards were prepared in the range of 0.1 to 10 μM for quantitation. LC-MS analysis was performed using MRM (Multiple Reaction Monitoring) detection of characteristic ions for each drug candidate and internal standard.

angiotensin II activity = conditions: human vascular extracts; cited from earlier work
[3] = aerosol 4.5 mg/dose BID for three days plus dose on day 4, 0.5 h prior to antigen challenge, FIG. 1
[4] = oral solution 15 mg/Kg/dose BID for three days plus dose on day 4, 2 h prior to antigen challenge, FIG. 3

Row | Molecule | IC50 (human skin chymase) [µM] | further results
1 | CP(=O)(O)C(C(=O)N/C=C/c1ccc(F)c(F)c1)c1csc2ccc(Cl)cc12 (stereo not drawn) [Cpd 17] |  | early airway response (0-2 h after antigen challenge) [1, 3]: unchanged; late airway response (6-8 h after antigen challenge) [1, 3]: completely blocked; delayed airway hyperreactivity at 24 h post antigen challenge (carbachol challenge) ([1]; aerosol administration, FIG. 2): completely blocked; delayed airway hyperreactivity at 24 h post antigen challenge (carbachol challenge) ([1]; oral administration, FIG. 4): completely blocked; early airway response (0-2 h after antigen challenge) [1, 4]: unchanged; late airway response (6-8 h after antigen challenge) [1, 4]: completely blocked
2 | CP(=O)(O)C(C(=O)NC=Cc1cccc(C(F)(F)F)c1)c1csc2ccc(Cl)cc12 (stereo not drawn) [Cpd 152] | 0.13 ± 0.03 | 
3 | CP(=O)(O)C(C(=O)N/C=C/c1cccc(OC(F)(F)F)c1)c1csc2ccc(Cl)cc12 (stereo not drawn) [Cpd 153] | 0.06 ± 0.01 | 
4 | COc1cccc(/C=C/NC(=O)C(c2csc3ccc(Cl)cc23)P(C)(=O)O)c1 (stereo not drawn) [Cpd 154] | 0.036 ± 0.05 | 
5 | Cc1ccccc1C=CNC(=O)C(c1csc2ccc(Cl)cc12)P(C)(=O)O (stereo not drawn) [Cpd 155] | 0.34 ± 0.04 | 
6 | CP(=O)(O)C(C(=O)N/C=C/c1c(F)cccc1F)c1csc2ccc(Cl)cc12 (stereo not drawn) [Cpd 156] | 0.036 ± 0.01 | 
7 | CP(=O)(O)C(C(=O)NC=Cc1ccc(C#N)cc1)c1csc2ccc(Cl)cc12 (stereo not drawn) [Cpd 157] | 11 ± 1.2 | 
8 | CP(=O)(O)C(C(=O)NC=Cc1ccccc1NC(N)=O)c1csc2ccc(Cl)cc12 (stereo not drawn) [Cpd 158, {(5-Chloro-benzo[b]thiophen-3-yl)-[2-(2-ureido-phenyl)-vinylcarbamoyl]-methyl}-methyl-phosphinic acid] | 6 ± 1.9 | 
9 | CP(=O)(O)C(C(=O)N/C=C/c1ccccc1NC(=O)NC(N)=O)c1csc2ccc(Cl)cc12 (stereo not drawn) [Cpd 159] | 3 ± 0.19 | 
10 | CP(=O)(O)C(C(=O)N/C=C/c1ccccc1Cl)c1csc2ccc(Cl)cc12 (stereo not drawn) [Cpd 160] | 0.065 ± 0.02 | 
11 | CP(=O)(O)C(C(=O)N/C=C/c1cc(F)cc(F)c1)c1csc2ccc(Cl)cc12 (stereo not drawn) [Cpd 162] | 0.009 | 
12 | CP(=O)(O)C(C(=O)N/C=C/c1cccc(F)c1F)c1csc2ccc(Cl)cc12 (stereo not drawn) [Cpd 163] | 0.017 | 
13 | CP(=O)(O)C(C(=O)N/C=C/c1ccccc1Br)c1csc2ccc(Cl)cc12 (stereo not drawn) [Cpd 164] | 0.1 ± 0.02 | 
14 | COc1cccc(/C=C/NC(=O)C(c2csc3ccc(Cl)cc23)P(C)(=O)O)c1OC (stereo not drawn) [Cpd 165] | 0.078 ± 0.03 | 
15 | CP(=O)(O)C(C(=O)N/C=C/c1cccc([N+](=O)[O-])c1)c1csc2ccc(Cl)cc12 (stereo not drawn) [Cpd 166] | 0.0387 ± 0.02 | 
16 | CP(=O)(O)C(C(=O)N/C=C/c1cccc(Br)c1)c1csc2ccc(Cl)cc12 (stereo not drawn) [Cpd 167] | 0.017 ± 0.04 | 
17 | COc1cc(/C=C/NC(=O)C(c2csc3ccc(Cl)cc23)P(C)(=O)O)cc(OC)c1 (stereo not drawn) [Cpd 168] | 0.0059 ± 0.01 | 

Row | Molecule | IC50 (human skin chymase) [µM] | further results
18 | CP(=O)(O)C(C(=O)N/C=C/c1cc(F)ccc1F)c1csc2ccc(Cl)cc12 (stereo not drawn) [Cpd 169] | 0.042 | 
19 | CP(=O)(O)C(C(=O)N/C=C/c1cc(Cl)cc(Cl)c1)c1csc2ccc(Cl)cc12 (stereo not drawn) [Cpd 170] | 0.0031 | 
20 | CP(=O)(O)C(C(=O)N/C=C/c1ccc(F)cc1F)c1csc2ccc(Cl)cc12 (stereo not drawn) [Cpd 171] | 0.025 ± 0.01 | 
21 | CP(=O)(O)C(C(=O)N/C=C/c1cccc(N)c1)c1csc2ccc(Cl)cc12 (stereo not drawn) [Cpd 172] | 0.041 ± 0.02 | 
22 | CC(C)(C)C(=O)OCOP(=O)(O)C(C(=O)N/C=C/c1ccccc1)c1cccc2ccccc12 (stereo not drawn) [Cpd 177] |  | Cmax at 2 h [2]: 2 ± 1.1 µM
23 | O=C(NC=Cc1ccccc1)C(c1cccc2ccccc12)P1(=O)OCCCO1 (stereo not drawn) [Cpd 178, 2-Naphthalen-1-yl-2-(2-oxo-2l5-[1,3,2]dioxaphosphinan-2-yl)-N-styryl-acetamide] |  | Cmax ([2]; read-out: CMax (μM) @ 2 h): 4.1 ± 0.28 µM
24 | CCN(CC)C(=O)COP(=O)(OCC(=O)N(CC)CC)C(C(=O)N/C=C/c1ccccc1)c1cccc2ccccc12 (stereo not drawn) [Cpd 180, (Naphthalen-1-yl-styrylcarbamoyl-methyl)-phosphonic acid didiethylcarbamoylmethyl ester] |  | Cmax at 2 h [2]: < 0.1 µM
25 | CC(C)(C)C(=O)OCOP(C)(=O)C(C(=O)N/C=C/c1ccc(F)c(F)c1)c1csc2ccc(Cl)cc12 (stereo not drawn) [Cpd 182] |  | Cmax at 2 h [2]: 11.8 ± 3.26 µM
26 | CP(=O)(OCCN)C(C(=O)NC=Cc1ccc(F)c(F)c1)c1csc2ccc(Cl)cc12 (stereo not drawn) [Cpd 184, {(5-Chloro-benzo[b]thiophen-3-yl)-[2-(3,4-difluoro-phenyl)-vinylcarbamoyl]-methyl}-methyl-phosphinic acid 2-amino-ethyl ester] |  | Cmax at 2 h [2]: 0.1 ± 0.05 µM
27 | CCN(CC)C(=O)COP(C)(=O)C(C(=O)NC=Cc1ccc(F)c(F)c1)c1csc2ccc(Cl)cc12 (stereo not drawn) [Cpd 185, {(5-Chloro-benzo[b]thiophen-3-yl)-[2-(3,4-difluoro-phenyl)-vinylcarbamoyl]-methyl}-methyl-phosphinic acid diethylcarbamoylmethyl ester] |  | Cmax at 2 h [2]: 2.1 ± 0.23 µM
28 | CC(C)(C)C(=O)OCOP(=O)(OCOC(=O)C(C)(C)C)C(C(=O)N/C=C/c1ccc(F)c(F)c1)c1csc2ccc(Cl)cc12 (stereo not drawn) [Cpd 186, 2,2-Dimethyl-propionic acid {(5-chloro-benzo[b]thiophen-3-yl)-[2-(3,4-difluoro-phenyl)-vinylcarbamoyl]-methyl}-(2,2-dimethyl-propionyloxymethoxy)-phosphinoyloxymethyl ester] |  | Cmax at 2 h [2]: 20.1 ± 3.5 µM
29 | CC(C)(C)C(=O)OCOP(=O)(O)C(C(=O)N/C=C/c1ccc(F)c(F)c1)c1csc2ccc(Cl)cc12 (stereo not drawn) [Cpd 187, 2,2-Dimethyl-propionic acid {(5-chloro-benzo[b]thiophen-3-yl)-[2-(3,4-difluoro-phenyl)-vinylcarbamoyl]-methyl}-hydroxy-phosphinoyloxymethyl ester] |  | Cmax at 2 h [2]: 21.4 ± 11 µM
30 | O=C(N/C=C/c1ccc(F)c(F)c1)C(c1csc2ccc(Cl)cc12)P1(=O)OCCCO1 (stereo not drawn) [Cpd 189, 2-(5-Chloro-benzo[b]thiophen-3-yl)-N-[2-(3,4-difluoro-phenyl)-vinyl]-2-(2-oxo-2,5-[1,3,2]dioxaphosphinan-2-yl)-acetamide] |  | Cmax at 2 h [2]: 21.1 ± 2.3 µM
31 | O=C(NC=Cc1cc(F)cc(F)c1)C(c1csc2ccc(Cl)cc12)P(=O)(O)O (stereo not drawn) [Cpd 199] | 0.0018 | 
32 | NCCCC[C@H](N[C@@H](CCc1ccccc1)C(=O)O)C(=O)N1CCC[C@H]1C(=O)O [lisinopril] |  | angiotensin II activity inhibited (angiotensin II activity): about 8%
33 | ({3-[(1-Benzoyl-piperidin-4-ylamino)-methyl]-naphthalen-2-ylcarbamoyl}-naphthalen-1-yl-methyl)-phosphonic acid [Cpd 44] | 0.35 ± 0.22 | 
34 | [(5-Chloro-benzo[b]thiophen-3-yl)-(naphthalen-2-ylcarbamoyl)-methyl]-carbamate [Cpd 80] | 1.65 ± 0.68 | 
